Source: patent publication US4459296A, “Piperazines and homopiperazines, N-substituted by an aromatic heterocyclic group, and their use in therapeutics” (Delalande S.A., priority 1982, dated 1984)
Read-outs that look alike come from different tables or passages of the source.

Assays:
[1] = Acute toxicity assessed intravenously in mice (method of Miller and Tainter); conditions: mouse, in vivo; for LD50: read-out: Acute toxicity LD 50
[2] = tested on: S.H.R. rats (genetically hypertensive); assay: Antihypertensive activity by oral administration to S.H.R. rats (genetically hypertensive); type: in vivo
Method: The arterial blood pressure was recorded on an APELAB-BP recorder 8002-and an electromechanical counter provided a direct reading of the heartbeat rate. The measurements were taken at 0 hour, 2 hours, 4 hours, 6 hours and 24 hours after administration of the compounds tested.
To illustrate the invention, the results obtained with some of the compounds of the invention are shown in Table II below in which the symbols AHY, ΔPA and ΔFC have the following meanings:
AHY=% of rats whose arterial blood pressure drops by a value greater than or equal to 20% of the initial value or is brought down to a value less than 150 mmHg,
ΔPA=% variation of the arterial blood pressure in all the animals tested with respect to the initial blood pressure,
ΔFC=% variation of the heart-beat rate of all the animals tested with respect to the initial rate.

[3] = iv, 200 mg/kg, i.v., read-out: Acute toxicity (mice), % at 200 mg/kg i.v. (printed "at 200 (0%)")
[4] = po, 1000 mg/kg, p.o., read-out: Acute toxicity (mice), % at 1000 (p.o.)
[5] = dose 50, 4 hours after administration
[6] = dose 50, 6 hours after administration
[7] = dose 50, 24 hours after administration

c1cc(N2CCNCC2)c2nc[nH]c2c1 [Code No. 1, (piperazino-1)-4(7) benzimidazole, tribromhydrate]
LD50 ([1]; iv): 125 mg/kg

CC(C)C(=O)N1CCN(c2cccc3[nH]cnc23)CC1 [Code No. 3]
mortality [1, 3]: 0%

O=C(c1cccs1)N1CCN(c2cccc3[nH]cnc23)CC1 [Code No. 7]
mortality [1, 3]: 0%

C=C(C)COC(=O)N1CCN(c2cccc3[nH]cnc23)CC1 [Code No. 17]
mortality [1, 3]: 0%

CSc1nnc(C(=O)N2CCN(c3cccc4[nH]cnc34)CC2)o1 [compound 12]
mortality [1, 4]: 0%

CCOC(=O)N1CCN(c2cccc3[nH]cnc23)CC1 [compound 13]
LD50 ([1]; iv): 160 mg/kg

CC(C)COC(=O)N1CCN(c2cccc3[nH]cnc23)CC1 [compound 21]
LD50 ([1]; iv): 195 mg/kg

c1ccc(SN2CCN(c3cccc4[nH]cnc34)CC2)cc1 [compound 24]
mortality [1, 4]: 0%

CCOC(=O)N1CCN(c2ncnc3nc[nH]c23)CC1 [compound 25]
mortality [1, 3]: 0%

CCOC(=O)N1CCN(c2cccc3[nH]c(C)nc23)CC1 [compound 26]
LD50 ([1]; iv): 200 mg/kg

CCOC(=O)C1CCN(c2cccc3[nH]cnc23)CC1 [compound 30]
LD50 ([1]; iv): 185 mg/kg

c1cc(N2CCNCC2)c2nn[nH]c2c1 [compound 39]
LD50 ([1]; iv): 96 mg/kg

c1cc(N2CCNCC2)c2cc[nH]c2c1 [compound 41]
LD50 ([1]; iv): 35 mg/kg

c1cc(N2CCNCC2)c2[nH]ccc2c1 [compound 42]
LD50 ([1]; iv): 70 mg/kg

(benzyloxycarbonyl-4 piperazino-1)-4 indole [Code No. 40]
AHY (% of rats whose arterial blood pressure drops by ≥20% of initial value or to <150 mmHg) [2, 5]: 86% | ΔFC (% variation of the heart-beat rate vs initial) [2, 5]: -11% | ΔPA (% variation of the arterial blood pressure vs initial) [2, 5]: -23% | AHY (% of rats whose arterial blood pressure drops by ≥20% of initial value or to <150 mmHg) [2, 6]: 86% | ΔFC (% variation of the heart-beat rate vs initial) [2, 6]: -8% | ΔPA (% variation of the arterial blood pressure vs initial) [2, 6]: -23% | AHY (% of rats whose arterial blood pressure drops by ≥20% of initial value or to <150 mmHg) [2, 7]: 0% | ΔFC (% variation of the heart-beat rate vs initial) [2, 7]: -9% | ΔPA (% variation of the arterial blood pressure vs initial) [2, 7]: -2%

(carbethoxy-4 piperazino-1)-4(7) benzimidazole, maleate [Code No. 13]
AHY (% of rats whose arterial blood pressure drops by ≥20% of initial value or to <150 mmHg) [2, 6]: 71% | ΔFC (% variation of the heart-beat rate vs initial) [2, 6]: 0% | ΔPA (% variation of the arterial blood pressure vs initial) [2, 6]: -19% | AHY (% of rats whose arterial blood pressure drops by ≥20% of initial value or to <150 mmHg) [2, 7]: 28% | ΔFC (% variation of the heart-beat rate vs initial) [2, 7]: -7% | ΔPA (% variation of the arterial blood pressure vs initial) [2, 7]: -9%

(carbethoxy-4 piperazino-1)-6 purine [Code No. 25]
AHY (% of rats whose arterial blood pressure drops by ≥20% of initial value or to <150 mmHg) [2, 5]: 14% | ΔFC (% variation of the heart-beat rate vs initial) [2, 5]: -5% | ΔPA (% variation of the arterial blood pressure vs initial) [2, 5]: -8% | AHY (% of rats whose arterial blood pressure drops by ≥20% of initial value or to <150 mmHg) [2, 6]: 57% | ΔFC (% variation of the heart-beat rate vs initial) [2, 6]: +1% | ΔPA (% variation of the arterial blood pressure vs initial) [2, 6]: -14% | AHY (% of rats whose arterial blood pressure drops by ≥20% of initial value or to <150 mmHg) [2, 7]: 43% | ΔFC (% variation of the heart-beat rate vs initial) [2, 7]: -4% | ΔPA (% variation of the arterial blood pressure vs initial) [2, 7]: -9%

(piperazino-4 (7) benzotriazole, dihydrochloride [Code No. 39]
AHY (% of rats whose arterial blood pressure drops by ≥20% of initial value or to <150 mmHg) [2, 5]: 33% | ΔPA (% variation of the arterial blood pressure vs initial) [2, 5]: -15% | AHY (% of rats whose arterial blood pressure drops by ≥20% of initial value or to <150 mmHg) [2, 6]: 67% | ΔFC (% variation of the heart-beat rate vs initial) [2, 6]: +3% | ΔPA (% variation of the arterial blood pressure vs initial) [2, 6]: -21% | ΔFC (% variation of the heart-beat rate vs initial) [2, 7]: 0%
